Experimental data published in a compilation of properties of binary mixtures (doi:10.1021/je300542s).

Assay: xn = mol fraction of the nth substance listed
Details: 101 kPa

O=C1CCCN1 + CC[n+]1ccn(C)c1.F[B-](F)(F)F
speed of sound [m/s]
Details | 293.15 K | 298.15 K | 303.15 K | 308.15 K
x1 = 0.0786 | 1634.5 | 1622.4 | 1612.6 | 1602.5
x1 = 0.0912 | 1635 | – | 1613.4 | 1603.4
x1 = 0.1278 | 1636.6 | 1624.6 | 1615.4 | 1605.6
x1 = 0.1711 | – | 1626.5 | – | –
x1 = 0.2294 | – | – | 1620.5 | –
x1 = 0.2686 | 1642.3 | 1630.8 | 1622.3 | –
x1 = 0.3292 | 1644.6 | 1633.3 | 1624.5 | 1613.2
x1 = 0.3684 | 1646.2 | 1634.8 | 1626 | 1614
x1 = 0.4283 | 1648.7 | 1637.1 | 1627.7 | 1615
x1 = 0.4695 | 1650.2 | 1638.6 | 1628.3 | 1615.7
x1 = 0.5281 | – | 1640 | 1629.2 | 1615.9
x1 = 0.5711 | 1653.7 | 1641.1 | – | 1616.2
x1 = 0.6283 | 1655.2 | 1641.9 | 1629.5 | 1615.9
x1 = 0.6603 | 1656 | 1642.1 | 1629.2 | 1615.3
x1 = 0.7302 | 1656.7 | – | 1628 | –
x1 = 0.7598 | – | 1641.5 | 1627.1 | –
x1 = 0.8296 | 1656.4 | 1640.1 | 1624.9 | 1611
x1 = 0.8901 | – | 1638.4 | – | 1608.3

CC[n+]1ccn(C)c1.F[B-](F)(F)F + CN1CCCC1=O
speed of sound [m/s]
Details | 293.15 K | 298.15 K | 303.15 K | 308.15 K
x2 = 0.0696 | – | – | 1598 | 1586.4
x2 = 0.0871 | – | 1607.6 | 1595.9 | 1584.2
x2 = 0.1273 | 1615.1 | 1603.2 | – | 1579.3
x2 = 0.1676 | 1611.5 | 1599.5 | 1587.2 | –
x2 = 0.2658 | 1605.6 | 1592 | 1579 | 1565.5
x2 = 0.2689 | 1605.3 | 1592 | – | 1565.2
x2 = 0.3228 | 1603.2 | 1589 | 1575.2 | 1560.7
x2 = 0.3683 | 1601.7 | 1586.9 | – | 1557.7
x2 = 0.4291 | 1600 | 1584.2 | – | –
x2 = 0.4744 | 1599.2 | 1582.6 | 1566.9 | 1551
x2 = 0.5227 | 1597.8 | 1581 | – | 1547.9
x2 = 0.5685 | 1596.9 | 1579 | 1562.4 | 1545.4
x2 = 0.6286 | 1595 | 1576.7 | 1559.3 | 1541.5
x2 = 0.6703 | 1593 | 1574.5 | – | 1539
x2 = 0.7291 | 1590.1 | 1571.2 | 1553.4 | 1534.5
x2 = 0.7711 | 1587.7 | – | 1550.1 | 1531.2
x2 = 0.8188 | 1584 | 1564.7 | – | –
x2 = 0.8887 | 1577.9 | 1558.4 | 1539.7 | 1520.3
